Converted amounts (≈) assume the structure as drawn. Where two headings read alike, the source gives them in different places.
Assays:
[1] = system: Mycobacterium tuberculosis H37Rv; assay: Microplate Alamar Blue assay (MABA) MIC, M. tuberculosis; format: cell-based; details: read-out: MIC Mycobacterium tuberculosis H37Rv
From the text: (§1) Minimal inhibitory concentrations (MICs) in Mycobacterium tuberculosis H37Rv and Mycobacterium avium ATCC 25291 were quantified using microplate Alamar Blue assays as described (MABA; [Collins, L. & Franzblau, S. (1997) Microplate Alamar Blue assay versus BACTEC 460 system for high-throughput screening of compounds against Mycobacterium tuberculosis and Mycobacterium avium. Antimicrob. Agents Chemother. 41, 1004-1009]).

[2] = system: Mycobacterium avium ATCC 25291; assay: Microplate Alamar Blue assay (MABA) MIC, M. avium; format: cell-based; details: ATCC25291, M. avium ATCC 25291
From the text: as §1

[3] = system: Mycobacterium smegmatis ATCC 19420; assay: Broth microdilution MIC, M. smegmatis; format: cell-based; details: Mycolicibacterium smegmatis
From the text: (§2) MICs in Mycobacterium smegmatis ATCC 19420 and Mycobacterium smegmatis ATCC 19420 derivatives were quantified using broth microdilution assays as described [Clinical and Laboratory Standards Institute (CLSI/NCCLS) (2009) Methods for Dilution Antimicrobial Susceptibility Tests for Bacteria That Grow Aerobically; Approved Standard, Eighth Edition. CLIS Document M07-A8 (CLIS, Wayne Pa.)].

[4] = system: rifampin-resistant mutants, derivatives of M. smegmatis ATCC19420; assay: MICs in rifampin-resistant mutants (cross-resistance levels); format: cell-based, Mycobacterium smegmatis
From the text: as §2

[5] = system: Vero E6 ATCC CRL1586 cells; assay: Mammalian-cell cytotoxicity, minimal cytotoxic concentration (CellTiter96); format: cell-based
Procedure: Minimal cytotoxic concentrations (MCCs) against mammalian cells in culture were determined using Vero E6 ATCC CRL1586 cells and the CellTiter96 assay kit (Promega, Inc.). […]

[6] = molecular target: Mycobacterium tuberculosis RNA polymerase (Mycobacterium tuberculosis, UniProt P9WGY7+P9WGY9); assay: Run-off transcription assay with Mycobacterium tuberculosis RNA polymerase (radiochemical); format: biochemical
Procedure: Run-off transcription assays with Mycobacterium tuberculosis RNA polymerase were performed using reaction mixtures containing (10 μl): 0-100 μM test compound, 75 nM Mycobacterium tuberculosis RNA polymerase core enzyme, 300 nM Mycobacterium tuberculosis σ^A, 20 nM 130 bp DNA fragment containing positions −100 to −1 of the bacteriophage […] N25 promoter followed by positions +1 to +30 of the lacUV5-15 promoter of [Mukhopadhyay, J., Kapanidis, A., Mekler, V., Kortkhonjia, E., Ebright, Y., Ebright, R. (2001) Cell 106, 453-463], 25 nM [alpha-^32P]UTP (600 Bq/pmol) for an initial 2 min at 37° C. and 100 μM [alpha-^32P]UTP (6 Bq/pmol) for a subsequent 5 min at 37° C., 100 μM ATP, 100 μM GTP, 100 μM UTP, 100 μM CTP, 40 mM Tris-HCl, pH 8.0, 80 mM NaCl, 5 mM MgCl2, 2.5 mM DTT, and 12.7% glycerol. Reactions were terminated by addition of […] 80% formamide, 10 mM EDTA, 0.04% bromophenol blue, and 0.04% xylene cyanol, followed by heating for 5 min at 90° C. Reaction products were resolved by 15% urea-PAGE, and quantified using a storage-phosphor scanner.

[7] = ATCC19420, M. smegmatis ATCC 19420, read-out: MIC Mycobacterium smegmatis ATCC 19420
[8] = IC50 Mycobacterium tuberculosis RNA polymerase
[9] = radiochemical transcription assays, M. tuberculosis RNA polymerase, read-out: Inhibition of mycobacterial RNA polymerase (IC50s)
[10] = ATCC19420, broth microdilution assays, M. smegmatis ATCC19420, read-out: Inhibition of mycobacterial growth in culture (MICs)

Mycobacterium tuberculosis RNA polymerase, sequence (P9WGZ1 whole entry, the tested form may be a part): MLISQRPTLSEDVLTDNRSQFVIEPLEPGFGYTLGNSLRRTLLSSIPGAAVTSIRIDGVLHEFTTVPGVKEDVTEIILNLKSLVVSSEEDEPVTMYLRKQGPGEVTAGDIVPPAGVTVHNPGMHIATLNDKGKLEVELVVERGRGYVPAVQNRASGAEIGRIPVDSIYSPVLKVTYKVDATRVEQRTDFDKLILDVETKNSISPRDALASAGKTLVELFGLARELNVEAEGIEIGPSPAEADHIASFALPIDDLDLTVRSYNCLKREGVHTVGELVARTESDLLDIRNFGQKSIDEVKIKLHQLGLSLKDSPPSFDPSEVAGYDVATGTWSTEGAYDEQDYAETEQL
Mycobacterium tuberculosis RNA polymerase, sequence (P9WGY5 whole entry, further chain, the tested form may be a part): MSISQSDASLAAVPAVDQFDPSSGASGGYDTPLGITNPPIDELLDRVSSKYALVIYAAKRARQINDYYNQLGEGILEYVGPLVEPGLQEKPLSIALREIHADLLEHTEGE
Mycobacterium tuberculosis RNA polymerase, sequence (P9WGY9 whole entry, the tested form may be a part): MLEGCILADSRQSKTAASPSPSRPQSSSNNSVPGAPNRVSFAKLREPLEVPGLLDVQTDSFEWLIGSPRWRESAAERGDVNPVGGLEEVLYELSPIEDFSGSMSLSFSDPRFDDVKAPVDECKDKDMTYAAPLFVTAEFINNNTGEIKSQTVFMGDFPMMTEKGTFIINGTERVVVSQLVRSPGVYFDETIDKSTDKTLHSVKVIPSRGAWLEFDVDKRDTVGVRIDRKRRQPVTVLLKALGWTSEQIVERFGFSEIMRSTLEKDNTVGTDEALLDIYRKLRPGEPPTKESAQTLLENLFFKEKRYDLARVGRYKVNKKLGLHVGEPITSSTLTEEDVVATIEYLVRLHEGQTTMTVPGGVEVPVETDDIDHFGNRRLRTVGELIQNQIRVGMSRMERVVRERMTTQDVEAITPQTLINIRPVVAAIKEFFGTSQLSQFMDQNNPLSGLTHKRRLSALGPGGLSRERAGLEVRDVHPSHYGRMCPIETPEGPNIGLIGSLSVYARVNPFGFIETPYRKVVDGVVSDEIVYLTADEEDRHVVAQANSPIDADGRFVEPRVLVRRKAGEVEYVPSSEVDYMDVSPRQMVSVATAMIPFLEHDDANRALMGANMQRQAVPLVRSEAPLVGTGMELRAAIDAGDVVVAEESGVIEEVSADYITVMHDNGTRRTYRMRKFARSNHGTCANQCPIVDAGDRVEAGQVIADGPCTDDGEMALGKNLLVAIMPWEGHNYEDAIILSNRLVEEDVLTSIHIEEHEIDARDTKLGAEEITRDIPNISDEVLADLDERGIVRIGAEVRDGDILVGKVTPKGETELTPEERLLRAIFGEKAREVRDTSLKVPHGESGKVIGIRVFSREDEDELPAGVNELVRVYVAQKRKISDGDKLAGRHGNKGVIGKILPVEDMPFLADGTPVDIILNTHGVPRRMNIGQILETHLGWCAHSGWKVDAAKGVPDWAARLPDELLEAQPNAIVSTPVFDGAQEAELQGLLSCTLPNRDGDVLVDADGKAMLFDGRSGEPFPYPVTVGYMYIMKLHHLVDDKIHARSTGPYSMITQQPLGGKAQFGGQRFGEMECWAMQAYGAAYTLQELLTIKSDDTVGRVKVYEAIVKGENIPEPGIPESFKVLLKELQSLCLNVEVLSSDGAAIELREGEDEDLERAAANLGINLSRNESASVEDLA
Mycobacterium tuberculosis RNA polymerase, sequence (P9WGI1 whole entry, further chain, the tested form may be a part): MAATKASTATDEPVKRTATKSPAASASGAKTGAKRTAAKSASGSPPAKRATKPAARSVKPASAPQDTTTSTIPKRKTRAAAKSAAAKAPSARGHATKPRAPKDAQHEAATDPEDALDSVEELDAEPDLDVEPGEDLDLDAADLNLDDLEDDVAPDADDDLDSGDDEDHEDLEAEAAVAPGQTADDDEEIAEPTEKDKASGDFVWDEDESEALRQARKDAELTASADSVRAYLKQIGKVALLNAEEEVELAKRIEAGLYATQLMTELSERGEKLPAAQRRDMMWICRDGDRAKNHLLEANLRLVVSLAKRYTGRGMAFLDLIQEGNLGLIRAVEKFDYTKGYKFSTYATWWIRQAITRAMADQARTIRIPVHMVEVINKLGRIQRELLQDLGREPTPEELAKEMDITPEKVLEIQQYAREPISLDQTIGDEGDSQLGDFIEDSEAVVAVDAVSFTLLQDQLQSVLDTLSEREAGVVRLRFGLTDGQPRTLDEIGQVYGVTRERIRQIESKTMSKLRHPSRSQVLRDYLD
Mycobacterium tuberculosis RNA polymerase, sequence (P9WGY7 whole entry, the tested form may be a part): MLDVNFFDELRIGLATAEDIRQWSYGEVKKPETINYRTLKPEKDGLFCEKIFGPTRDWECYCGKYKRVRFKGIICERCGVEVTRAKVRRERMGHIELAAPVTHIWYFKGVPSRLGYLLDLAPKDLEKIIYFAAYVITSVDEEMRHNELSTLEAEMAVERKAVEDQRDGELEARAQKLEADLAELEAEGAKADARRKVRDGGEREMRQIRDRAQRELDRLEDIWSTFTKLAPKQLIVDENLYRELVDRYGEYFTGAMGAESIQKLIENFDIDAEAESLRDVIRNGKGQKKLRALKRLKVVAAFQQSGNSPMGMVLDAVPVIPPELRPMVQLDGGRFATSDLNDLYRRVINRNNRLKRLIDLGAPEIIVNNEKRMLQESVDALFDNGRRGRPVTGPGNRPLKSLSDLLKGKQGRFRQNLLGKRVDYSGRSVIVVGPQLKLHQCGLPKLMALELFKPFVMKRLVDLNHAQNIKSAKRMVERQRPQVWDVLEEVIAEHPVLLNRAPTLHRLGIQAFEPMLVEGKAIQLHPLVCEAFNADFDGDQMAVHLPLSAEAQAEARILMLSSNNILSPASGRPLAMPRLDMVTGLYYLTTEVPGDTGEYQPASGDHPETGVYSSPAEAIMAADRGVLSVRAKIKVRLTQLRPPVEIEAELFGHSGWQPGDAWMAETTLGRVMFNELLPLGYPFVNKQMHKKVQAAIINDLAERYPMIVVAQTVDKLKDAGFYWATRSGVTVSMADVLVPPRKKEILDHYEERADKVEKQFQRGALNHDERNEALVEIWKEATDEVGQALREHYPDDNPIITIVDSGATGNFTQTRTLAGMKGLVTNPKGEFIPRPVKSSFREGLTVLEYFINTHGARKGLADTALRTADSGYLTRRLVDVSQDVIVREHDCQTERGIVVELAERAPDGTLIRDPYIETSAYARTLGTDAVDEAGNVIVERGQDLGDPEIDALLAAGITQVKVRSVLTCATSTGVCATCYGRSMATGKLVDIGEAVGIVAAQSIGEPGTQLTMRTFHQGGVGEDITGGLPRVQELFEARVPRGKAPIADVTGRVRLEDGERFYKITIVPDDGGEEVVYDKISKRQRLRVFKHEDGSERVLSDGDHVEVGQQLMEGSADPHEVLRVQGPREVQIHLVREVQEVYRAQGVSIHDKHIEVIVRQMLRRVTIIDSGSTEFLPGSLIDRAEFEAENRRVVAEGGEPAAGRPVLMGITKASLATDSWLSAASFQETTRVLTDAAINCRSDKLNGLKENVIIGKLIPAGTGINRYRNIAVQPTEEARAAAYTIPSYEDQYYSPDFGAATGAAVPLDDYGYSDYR

| SMILES | MIC [1] | MIC [2] | MIC [3, 7] | cross-resistance of rifampin-resistant mutants to the compound [4] | MCC mammalian cells Vero E6 ATCC CRL1586 [5] | IC50 [6, 8] | IC50 [6, 9] | MIC [3, 10] |
| --- | --- | --- | --- | --- | --- | --- | --- | --- |
| Cc1ccccc1NC(=O)C(Cc1ccccc1)NC(=O)c1cccc2[nH]ccc12 (stereo not shown) [II-39] | 12.5 µg/mL (≈ 31.4 µM) | 12.5 µg/mL (≈ 31.4 µM) | 0.39 µg/mL (≈ 0.981 µM) | No rifampin-resistant mutant was found to exhibit cross-resistance | 36 µg/mL |  |  |  |
| O=C(NC(Cc1ccccc1)C(=O)Nc1cccc2cccnc12)c1ccccc1 (stereo not shown) [IX-2, N-(1-oxo-3-phenyl-1-(quinolin-8-ylamino)propan-2-yl)benzamide] | > 39 µg/mL | > 50 µg/mL | 3.12 µg/mL (≈ 7.9 µM) | No rifampin-resistant mutant was found to exhibit cross-resistance | >39 µg/mL |  |  |  |
| O=C(NC(Cc1ccccc1)C(=O)Nc1cccc2cnccc12)c1ccccc1 (stereo not shown) [IX-3, N-(1-(isoquinolin-5-ylamino)-1-oxo-3-phenylpropan-2-yl)benzamide] | 3.13 µg/mL (≈ 7.91 µM) | 6.25 µg/mL (≈ 15.8 µM) | 0.195 µg/mL (≈ 0.493 µM) | No rifampin-resistant mutant was found to exhibit cross-resistance | >40 µg/mL |  |  |  |
| O=C(NC(Cc1ccccc1)C(=O)Nc1cccc2ncccc12)c1ccccc1 (stereo not shown) [IX-4, N-(1-oxo-3-phenyl-1-(quinolin-5-ylamino)propan-2-yl)benzamide] | 12.5 µg/mL (≈ 31.6 µM) | > 50 µg/mL | 0.78 µg/mL (≈ 1.97 µM) | No rifampin-resistant mutant was found to exhibit cross-resistance | >40 µg/mL |  |  |  |
| O=C(NC(Cc1ccccc1)C(=O)Nc1cccc2c1OCCO2)c1ccccc1 (stereo not shown) [IX-5, N-(1-((2,3-dihydrobenzo[b][1,4]dioxin-5-yl)amino)-1-oxo-3-phenylpropan-2-yl)benzamide] | 6.25 µg/mL (≈ 15.5 µM) | 6.25 µg/mL (≈ 15.5 µM) | 0.39 µg/mL (≈ 0.969 µM) | No rifampin-resistant mutant was found to exhibit cross-resistance | >40 µg/mL |  |  |  |
| O=C(NC(Cc1ccc(O)cc1)C(=O)Nc1cccc2c1CCC2)c1ccccc1 (stereo not shown) [IX-14, N-(1-((2,3-dihydro-1H-inden-4-yl)amino)-3-(4-hydroxyphenyl)-1-oxopropan-2-yl)benzamide] | 6.25 µg/mL (≈ 15.6 µM) | 12.5 µg/mL (≈ 31.2 µM) | 0.39 µg/mL (≈ 0.974 µM) | No rifampin-resistant mutant was found to exhibit cross-resistance | >40 µg/mL |  |  |  |
| O=C(NC(Cc1ccccc1)C(=O)Nc1ccccc1OCF)c1ccccc1 (stereo not shown) [IX-27, N-(1-((2-(fluoromethoxy)phenyl)amino)-1-oxo-3-phenylpropan-2-yl)benzamide] | 1.56 µg/mL (≈ 3.98 µM) | 3.12 µg/mL (≈ 7.96 µM) | 0.195 µg/mL (≈ 0.497 µM) |  | >100 µg/mL | 990 nM |  |  |
| COc1ccc(F)cc1NC(=O)C(Cc1ccc(O)cc1)NC(=O)c1ccccc1F (stereo not shown) [IX-204, 2-fluoro-N-(1-((5-fluoro-2-methoxyphenyl)amino)-3-(4-hydroxy-phenyl)-1-oxopropan-2-yl)benzamide] | 0.78 µg/mL (≈ 1.83 µM) | 1.56 µg/mL (≈ 3.66 µM) | 0.39 µg/mL (≈ 0.915 µM) |  | 50 µg/mL | 390 nM |  |  |
| O=C(NC(Cc1ccccc1)C(=O)Nc1cc(F)ccc1N1CCNCC1)c1ccccc1 (stereo not shown) [IX-245, N-(1-((5-fluoro-2-(piperazin-1-yl)phenyl)amino)-1-oxo-3-phenyl-propan-2-yl)benzamide] | 1.56 µg/mL (≈ 3.49 µM) | 0.78 µg/mL (≈ 1.75 µM) | 0.39 µg/mL (≈ 0.873 µM) |  | 17 µg/mL | 220 nM |  |  |
| O=C(NC(Cc1ccccc1)C(=O)Nc1cc(F)ccc1N1CCNCC1)c1ccccc1Br (stereo not shown) [IX-315, 2-bromo-N-(1-((5-fluoro-2-(piperazin-1-yl)phenyl)amino)-1-oxo-3-phenylpropan-2-yl)benzamide] | 3.12 µg/mL (≈ 5.95 µM) | 1.56 µg/mL (≈ 2.97 µM) | 0.39 µg/mL (≈ 0.742 µM) |  | 12.5 µg/mL | 210 nM |  |  |
| Cc1ccccc1N[C@@H](Cc1ccccc1)C(=O)Nc1ccccc1 [Nα-(2-methylphenyl)-N-phenyl-phenylalaninamide] |  |  |  |  |  |  | ≥ 100 nM | ≥ 0.3 µg/mL |
| O=C(Nc1ccccc1F)[C@H](Cc1ccccc1)Nc1ccccc1 [Nα-phenyl-N-(2-fluorophenyl)-phenylalaninamide] |  |  |  |  |  |  | ≥ 100 nM | ≥ 0.3 µg/mL |
| O=C(Nc1ccncc1)[C@H](Cc1ccccc1)Nc1ccccc1 [Nα-phenyl-N-(4-pyridyl)-phenylalaninamide] |  |  |  |  |  |  | ≥ 100 nM | ≥ 0.3 µg/mL |
| O=C(Nc1ccccc1)[C@H](Cc1ccccc1)Nc1ccccc1 [Nα-phenyl-N-phenyl-phenylalaninamide] |  |  |  |  |  |  | ≥ 100 nM | ≥ 0.3 µg/mL |
